Assay [1] deals with dopamine receptor. As to conditions: mice; 10 mg/kg s.c. apomorphine.
The nature of assay [2]: Conditioned avoidance (discrete trial) test. It counts as in vivo, Male CD rats. The conditions noted are these: Rattus norvegicus, po; perorally administered; discrete trial; rats; read-out: AB50 (the source's name). The protocol: The antipsychotic activity of the compounds of the invention is assessed via the conditioned avoidance (discrete trial) test. This test has excellent clinical correlation for antipsychotic activity.
Male CD rats (Charles River) maintained at approximately 400-450 gm body weight are used. Rats trained previously are placed in plexiglass experimental chambers equipped with a response lever, house light, and sonalert. A steel grid floor is wired for presentation of electric shock. Each trial consists of a fifteen-second warning tone (conditioned stimulus), continuing for an additional fifteen seconds accompanied by electric shock, (unconditioned stimulus). The rat can terminate a trial at any point by depression of the response lever. A response during the initial fifteen-second warning tone ends the trial before shock delivery and is considered an avoidance response, while a response occurring during shock delivery is an escape response. Trials are presented on a variable interval schedule of two minutes. The session consists of sixty trials. Animals are run two to three times weekly with control sessions always preceding a drug run, and with at least one day intervening, compounds are administered i.p. or p.o. at appropriate pre-treatment times to a minimum of five to six rats at each dose level over a range of doses.
The following experimental parameters are recorded by computer: (1) the number of intertrial interval responses, (2) the number of avoidance responses, (3) the number of escape responses, and (4) the number of trials in which no response occurred.
Response counts are summed over all subjects at a given dose. […] This number is expressed as a percentage of the total trials. Control performance is arbitrarily assigned a value of 100% for avoidance and the dose calculated to produce a 50% block in avoidance responding (AB50 ) is obtained from a dose-effect regression line fitted by the method of least squares. Potential antipsychotic compounds suppress avoidance responding and increase escape responding.

Assay [3] in a line: Conditioned avoidance (shelf-jump response) test. As to conditions: Rattus norvegicus, ip, rats, read-out: AB50 (standard compounds). It counts as in vivo, Male CD rats. From the text:
Another test designed to determine the potential antipsychotic activity of the compounds of the invention is the conditioned avoidance (shelf-jump response) test.
Male CD rats (Charles River) maintained at approximately 400-450 gm body weight are used. […] A moveable wall, controlled by a motor, determines whether the rat has access to the shelf at any time during the experiment. The experimental chamber also contains a house light and sonalert. A steel grid floor in the main chamber is wired for presentation of electric shock. Each trial consists of a fifteen-second warning tone (conditioned stimulus), continuing for an additional fifteen seconds accompanied by electric shock (unconditioned stimulus). A response (jumping onto the exposed shelf of the upper chamber) occurring during the initial fifteen-second warning tone is considered an avoidance response, while a response occurring during shock delivery is considered an escape response. Trials are presented on a fixed interval schedule of one minute. The session consists of thirty-six trials. […]
The following experimental parameters are recorded by computer: (1) the number of avoidance responses, (2) the number of escape responses, and (3) the number of trials in which no response occurred.
Response counts are summed over all subjects at a given dose. […] This number is expressed as a percentage of the total trials. […]

This is an account of results in patent US4732984A, “Piperazinoisothiazolones with psychotropic activity” (priority 1986, dated 1988).

Turning to `O=C1CC2(CCCC2)CC(=O)N1CCCCN1CCN(c2ncccn2)CC1` [Buspirone, 8-[4-[4-(2-pyrimidinyl)-1-piperazinyl]butyl]-8-azaspiro[4.5]decane-7,9-dione], in assay [1], the “Activity in apomorphine-induced stereotyped behavior assay” value was “inactive”. Moreover, the ED50 turned out to be 32 mg/kg in assay [2] and 9.44 mg/kg in assay [3].
